Results as given in patent US8242148B2 (priority 2005, dated 2012).
“Also recorded” adds a separate entry of the source. Where a name gives a salt, the structure may show the parent alone. Read-outs that look alike come from different tables or passages of the source.

What was measured:
[1] = test system: histamine release in the anterior hypothalamus; details: rats; cited from earlier work
rats = details: cited from earlier work
[2] = test system: histamine H3 autoreceptors; details: cats, oral, cited from earlier work
ADHD adults [3] = test: Heart rate and blood pressure change from baseline; assay type: in vivo, human
Text: (§1) Subjects were randomly assigned to active drug, dose, and/or placebo using a modified Latin Square design. Safety measures, including vital signs, electrocardiogram, peak respiratory flow, clinical laboratory tests, and logging of adverse events were observed.
Changes from baseline in heart rate and BP were not dose dependent, nor were changes in these cardiovascular parameters by dose appreciably different from the placebo condition.

[4] = test system: patients with cerebrovascular dementia; details: placebo-controlled trials; cited from earlier work
healthy volunteers = details: cited from earlier work
ADHD adults [5] = test: ECG parameters (QT, QTc) after single-dose betahistine in ADHD adults; assay type: in vivo, human; details: for QT Baseline / QTc Baseline: baseline (pre-dose); for QT 2 hours / QTc 2 hours: 2 hours post-dose
Text: as §1
(§2) Those AEs which accounted for >10% of the total were headache (n=11), fatigue (n=8), somnolence (n=8) and dizziness (n=4). […] The ECG data is summarized in Table 1 and categorized as benign.
Throughout the study, two subjects experienced a conversion of their baseline ECG from normal to abnormal but not clinically significant two hours following a dose of study drug betahistine. […] Each of these abnormal ECGs were not repeated in these same subjects with other doses of betahistine.

ADHD adults [6] = test: Satiety Quotient (surrogate marker of appetite suppression); assay type: in vivo, human; details: RMANOVA, treatment 0, 50, 100, 200 mg
Text: Instead, the study used surrogate markers of ADHD efficacy which are widely accepted, such as the signal detection (A prime) measures from the Continuous Performance Task (CPT) and a Go-no-Go task. Improvements or enhanced signal detection for either of these tasks track well with clinical improvements measuring ADHD symptom severity and frequency. (Epstein et al., Relations Between Continuous Performance Test Performance Measures and ADHD Behaviors, J. of Abnormal Child Psych. 31:5, 543-54 (2001)). […] To reflect this design, the study was analyzed using a repeated-measures analysis of variance (ANOVA) model (in SAS version 9.2, using the MIXED procedure). Treatment (4 levels: 0, 50, 100, 200) and Period (3 levels) and their interaction were included as fixed within-subject factors.

ADHD adults [7] = test: Pulmonary function (forced expiratory volume); assay type: in vivo, human
Procedure: as §1
All pulmonary function readings were analyzed by a board certified pulmonologist and no report was rated clinically significant.

HPA axis [8] = test: Cortisol response / HPA axis activity in rats; assay type: in vivo, rat
Text: Certain subtypes of depression have been associated with decreased function of the hypothalamic-pituitary-adrenal (HPA) axis as evidenced by low cortisol and/or decreased CRH and ACTH levels.

ADHD adults [9] = test: Continuous Performance Task (CPT) signal detection, A prime and B prime; assay type: in vivo, human
Text: Subjects were randomly assigned to active drug, dose, and/or placebo using a modified Latin Square design. Safety measures, including vital signs, electrocardiogram, peak respiratory flow, clinical laboratory tests, and logging of adverse events were observed. […] Instead, the study used surrogate markers of ADHD efficacy which are widely accepted, such as the signal detection (A prime) measures from the Continuous Performance Task (CPT) and a Go-no-Go task. Improvements or enhanced signal detection for either of these tasks track well with clinical improvements measuring ADHD symptom severity and frequency. (Epstein et al., Relations Between Continuous Performance Test Performance Measures and ADHD Behaviors, J. of Abnormal Child Psych. 31:5, 543-54 (2001)). […] To reflect this design, the study was analyzed using a repeated-measures analysis of variance (ANOVA) model (in SAS version 9.2, using the MIXED procedure). Treatment (4 levels: 0, 50, 100, 200) and Period (3 levels) and their interaction were included as fixed within-subject factors. In the case of signal detection measures, measures over three repeated blocks in each of three sessions were averaged to produce a summary measure for that session. Sessions were performed prior to drug administration and at two and four hours post-administration. A third within-subject factor (time since drug administration in hours; 0, 2, and 4 hours) was included along with its interactions with the treatment and period effects. A compound-symmetry structure was assumed for the correlation pattern of the within-subject residuals (equivalent to allowing each subject to have an individual intercept term to account for correlation among repeat measures on the same subject). Principle hypothesis tests were comparisons of the average of the non-zero doses against the placebo, as well as comparisons of each individual non-zero dose versus placebo. These were performed as linear contrasts, two-sided, α=0.05.

[10] = test system: adult human subjects having ADHD; details: in vivo
Text: as §1
There were 39 total adverse events (AEs) across 16 total subjects, of which 12/16 accounted for all 39 reports. Only 16/39 AEs were rated as moderate in severity. […] Of the 39 total AEs, 21/39 were judged by the investigator to be possibly related to study drug based primarily on proximity (within 3 hours) to study drug administration. Only 3/39 AEs were judged as probably related to study drug and consisted of orthostasis, drowsiness and agitation. All adverse events resolved within 24 hours of the visit and most resolved by the end of each study visit (each visit lasting 5-6 hours). One subject experienced orthostatic hypotension at 1 hour following study drug administration on two separate occasions (Visit 1 (rated as mild) and Visit 3 (rated as moderate), the later judged to be probably study drug-related.
as §2

[11] = humans, cited from earlier work
[12] = animal studies, peripheral administration; cited from earlier work
[13] = test system: patients with multiple sclerosis; details: cited from earlier work
[14] = Plasma pharmacokinetics of 2-pyridylacetic acid after betahistine hydrochloride (LC/MS/MS); details: for Terminal elimination rate / Cmax: mean ± SD; for AUC(0-t) / Tmax / half-life / Cmax: plasma
Procedure: Blood samples for pharmacokinetic analysis were collected just prior to study drug dosing, and at 0.5, 1, 1.5, 2, 3, and 4 hours. Samples (5 ml) were collected in tubes containing EDTA and were placed on ice after gentle shaking. Samples were centrifuged within 15 min at 4° C. at 3000×g for 10 min and plasma was separated into polypropylene tubes. Plasma was stored at −70° C. until further analysis.
Plasma samples were analyzed using a validated liquid chromatography tandem mass spectroscopy (LC/MS/MS) as reported by Chen et al. with minor modifications. To 500 μL of plasma, 100 μL of 0.5 M orthophosphoric acid (H3PO4) was added. The mixed sample was extracted with 5 ml of ethyl acetate and 2-propanol mixture (97.5:2.5, v/v) and vortex-mixed thoroughly for 1 min. Sample was centrifuged at 2000×g for 10 min maintained at 4° C., the upper clear portion was carefully transferred to a glass tube and evaporated to dryness under nitrogen gas at 25° C. The residue was reconstituted with 100 μL of mobile phase and filtered using a Sep-pak® (Waters) SPE cartridges which was pre-equilibrated with mobile phase. The processed samples were analyzed using a liquid chromatography equipped with a Surveyor autosampler model Plus and a Surveyor quaternary gradient HPLC-pump (Thermo Fisher Scientific) connected to a linear ion trap-Fourier Transform LTQ-FT™ mass spectrometer operated in positive ion electrospray mode.
Plasma concentration-time profile data were used to calculate Cmax, time to achieve Cmax (Tmax), terminal elimination half-life (T1/2), area under the plasma concentration-time curve from zero to last measurable time point (AUC0-t). The half life (T1/2) was calculated as 0.693/λz, where λz is the terminal-phase elimination rate constant. AUC0-t was calculated using the linear trapezoidal rule area under the curve (AUC0-t) from time zero to the time of the last measurable concentration (CT) at 4 hrs (last measurable time point).

HPA axis [15] = details: mice; cited from earlier work
[16] = RMANOVA, treatment 0, 50, 100, 200 mg
[17] = RMANOVA, treatment 0, 50, 100, 200 mg, DF 3/29
[18] = after 100 mg betahistine hydrochloride

Compound: NC(=O)C[S+]([O-])C(c1ccccc1)c1ccccc1 (centres unmarked) [modafinil]
- Hypothalamic histamine release [1]: increase hypothalamic histamine release

Compound: CNCCc1ccccn1 [betahistine]
- Eating behavior (rats): decrease eating behavior in rats in a dose-dependent manner
- Biologic effects on brain histamine or histamine H3 receptors ([2]; roughly the human dose (48 mg/day)): no biologic effects
- Heart rate and blood pressure effects (ADHD adults [3]; 50, 100, 200 mg, not dose dependent): minimal and judged as not clinically significant
- Change in systolic blood pressure from baseline (ADHD adults [3]; betahistine 50, 100, 200 mg vs placebo (FIG. 2)): No clinically significant change
- Change in diastolic blood pressure from baseline (ADHD adults [3]; betahistine 50, 100, 200 mg vs placebo (FIG. 3)): No clinically significant change
- Motor activity and cognitive functioning [4]: increase motor activity and improve cognitive functioning
- Effects on arousal and vigilance (healthy volunteers; 32 mg dose vs placebo): no effect; also recorded: no noticeable CNS-stimulating effects
- Effects on arousal and vigilance (healthy volunteers; single dose 64 mg vs placebo): greater than those observed with placebo; also recorded: only mild stimulant-like effects
- ECG data, category (ADHD adults [5]; 50, 100, 200 mg): benign
- QT Baseline (ADHD adults [5]; betahistine 50 mg group): 416 ± 33 ms
- QTc Baseline (ADHD adults [5]; betahistine 50 mg group): 416 ± 18 ms
- QT 2 hours (ADHD adults [5]; betahistine 50 mg): 403 ± 26 ms
- QTc 2 hours (ADHD adults [5]; betahistine 50 mg): 407 ± 18 ms
- QT Baseline (ADHD adults [5]; betahistine 100 mg group): 412 ± 27 ms
- QTc Baseline (ADHD adults [5]; betahistine 100 mg group): 409 ± 13 ms
- QT 2 hours (ADHD adults [5]; betahistine 100 mg): 395 ± 37 ms
- QTc 2 hours (ADHD adults [5]; betahistine 100 mg): 401 ± 14 ms
- QT Baseline (ADHD adults [5]; betahistine 200 mg group): 403 ± 37 ms
- QTc Baseline (ADHD adults [5]; betahistine 200 mg group): 410 ± 18 ms
- QT 2 hours (ADHD adults [5]; betahistine 200 mg): 400 ± 34 ms
- QTc 2 hours (ADHD adults [5]; betahistine 200 mg): 405 ± 17 ms
- QT and rate corrected QTc (Bazett's) change from baseline (ADHD adults [5]; betahistine 50, 100, 200 mg vs placebo (FIG. 1)): No clinically significant change
- Abnormal ECGs, clinical significance (ADHD adults [5]; two subjects abnormal but NCS at 2 hours (200 mg, 50 mg)): no abnormal ECGs were read as clinically significant
- Satiety Quotient - 2 hrs, Treatment effect, Pr > F (ADHD adults [6]): 0.4475
- Satiety Quotient - 4 hrs, Treatment effect, Pr > F (ADHD adults [6]): 0.8360
- Satiety Quotient - 2 hrs, Treatment effect, F Value (ADHD adults [6]; DF 3/21): 0.92
- Satiety Quotient - 4 hrs, Treatment effect, F Value (ADHD adults [6]; DF 3/21): 0.28
- Effect on airway compliance and/or pulmonary function (ADHD adults [7]; FEV 25-75 at four hour post-dose): minimal or no effect
- Change in forced expiratory volume in 1 second (FEV) from baseline (ADHD adults [7]; betahistine vs placebo (FIG. 4)): No clinically significant change
- Cortisol response to stress (HPA axis [8]): increases the cortisol response to stress
- Effect on decrease in cortisol after dexamethasone administration (HPA axis [8]): counteracts the decrease in cortisol
- APRIME_CPT, Treatment effect, Pr > F (ADHD adults [9]; [16]): 0.0254
- BPRIME_CPT, Treatment effect, Pr > F (ADHD adults [9]; [16]): 0.0045
- APRIME_CPT, Treatment effect, F Value (ADHD adults [9]; [17]): 3.59
- BPRIME_CPT, Treatment effect, F Value (ADHD adults [9]; [17]): 5.38
- Effect on attention (CPT sensitivity and inhibition) (ADHD adults [9]; adults with ADHD, single doses up to 200 mg): improves attention
- CPT A prime, effect vs placebo (ADHD adults [9]; betahistine vs placebo): demonstrated a treatment effect compared to placebo
- AEs judged possibly related to study drug ([10]; human): 21/39
- AEs judged probably related to study drug ([10]; human): 3/39
- AEs rated as moderate in severity ([10]; human): 16/39
- Total adverse events ([10]; human): 39
- AEs reported as severe [10]: No AEs were reported as severe
- Relationship between frequency or severity of AEs and dose [10]: no relationship
- Biologic half-life, mean [11]: 5 hours
- Biologic half-life, variability [11]: 2-11 hours
- CNS concentration relative to plasma levels [12]: approximately half
- Symptoms of fatigue [13]: statistically significant reduction

Compound: CNCCc1ccccn1 [betahistine dihydrochloride]
- Dose required for rapid biological effect on histamine H3 autoreceptors ([2]; relative to human-equivalent 24-48 mg/day): 5 fold and 10 fold higher equivalent doses were required

Compound: O=C(O)Cc1ccccn1 [2-pyridylacetic acid]
- Half-life and Tmax across the dose levels ([14]; 50, 100, 200 mg betahistine): remained unchanged
- Terminal elimination rate ([14]; after 50 mg betahistine hydrochloride): 0.43 ± 0.35 h⁻¹
- Terminal elimination rate [14, 18]: 0.25 ± 0.18 h⁻¹
- Terminal elimination rate ([14]; after 200 mg betahistine hydrochloride): 0.28 ± 0.17 h⁻¹
- AUC(0-t) ([14]; human, 50 mg): 1300 ± 587 ng·h/mL
- Tmax ([14]; human, 50 mg): 1.55 ± 0.44 h
- half-life ([14]; human, 50 mg): 4.24 ± 1.68 h
- Cmax ([14]; human, 50 mg, Cmax, after 50 mg betahistine hydrochloride): 611 ± 490 ng/mL
- AUC(0-t) ([14]; human, 100 mg): 2780 ± 1840 ng·h/mL
- Tmax ([14]; human, 100 mg): 1.3 ± 0.35 h
- half-life ([14]; human, 100 mg): 3.74 ± 1.97 h
- Cmax ([14]; human, 100 mg, Cmax, after 100 mg betahistine hydrochloride): 1040 ± 673 ng/mL
- AUC(0-t) ([14]; human, 200 mg): 5250 ± 2430 ng·h/mL
- Tmax ([14]; human, 200 mg): 2.05 ± 0.86 h
- half-life ([14]; human, 200 mg): 3.88 ± 3.38 h
- Cmax ([14]; human, 200 mg, Cmax, after 200 mg betahistine hydrochloride): 2040 ± 905 ng/mL
- Cmax [14, 18]: 1043.88 ± 673.49 ng/mL

Compound: NNCCc1ccccc1 [phenelzine]
- Cortisol levels (HPA axis [15]): increases cortisol levels

Compound: CNCCc1ccccn1.CS(=O)(=O)O.CS(=O)(=O)O [betahistine mesylate]
- Bioavailability ([11]; oral): less than 1%
